From US20160184459A1, “CANCER CELL SPECIFIC IMAGING PROBES AND METHODS OF USE” (THE RESEARCH FOUNDATION FOR THE STATE UNIVERSITY OF NEW YORK, priority 2013, published 2016) come the findings set out here.

Assay [1] concerns pancreatic cancer cells (BXPC-3 and MiaPaca-2). Nature of the assay: Cell viability assay, pancreatic cancer cells. Format: cell-based, human. The conditions noted are these: MTS. How it is done: FIG. 16. Anticancer effect of BKAc-Puro on pancreatic cell lines. The cell lines were treated with DMSO (vehicle), BKAc-Puro (54 μM), or Puro (4.2 μM) for 5 d followed by MTS assay. Normal Eph4 (non-pancreatic) cells are shown as control. Data represent mean values of triplicate measurements±s.d.
FIG. 18. Selective cytotoxicity by BKAc-Puro on pancreatic cancer cells. Pancreatic cancer (BXPC-3 and Miapaca-2), colon cancer (HCT116 as a positive control sensitive to the drug), and normal colon (CCD841-CoN as a negative control) cells were grown and analyzed as in FIG. 13. […]
Cell number was determined by cell counting using improved Neubauer hemacytometer. Cell viability was calculated as the number of viable cells divided by the total number of cells using Trypan Blue Stain (Invitrogen) to distinguish non-viable cells. […] After additional 2-3 h incubation, the absorbance of the formazan at 490 nm was measured by the microplate reader. […] Determination of non-viable cells using PI staining was performed by adding 1 μg/ml of PI solution (Sigma) to the cell culture, prior to the examination under fluorescence microscopy (Axiovert 3, Carl Zeiss) through a×32 objective equipped with a digital imaging processor (Infinity 3, Lumenera).

Assay [2] has as its system non-malignant Caco-2 cells. Briefly: Cell counting, Caco-2. The conditions noted are these: 54 μM, 5 d. Format: cell-based, human. On the procedure: FIG. 9. The colon cancer cell lines were grown for 5 d either with vehicle control DMSO (gray symbols) or 54 μM BKAc-Puro (red and blue symbols), and cell number was determined at the indicated time points.
Cell number was determined by cell counting using improved Neubauer hemacytometer. Cell viability was calculated as the number of viable cells divided by the total number of cells using Trypan Blue Stain (Invitrogen) to distinguish non-viable cells. Data were obtained from duplicated samples with quadruplicate measurements. MTS based cell viability assay was performed using CellTiter 96 Aqueous Cell Proliferation Assay (Promega) according to the manufacturer's instruction. Either 1 μl of DMSO alone or variable concentrations of BKAc-Puro or Puro in DMSO were added to the cell lines seeded at 5×10^4 cells per well in 96-well tissue culture plates in 100 μl of the growth medium, followed by 3-5 d incubation at 37° C. with 5% CO2 atmosphere. […] After additional 2-3 h incubation, the absorbance of the formazan at 490 nm was measured by the microplate reader. […] Determination of non-viable cells using PI staining was performed by adding 1 μg/ml of PI solution (Sigma) to the cell culture, prior to the examination under fluorescence microscopy (Axiovert 3, Carl Zeiss) through a×32 objective equipped with a digital imaging processor (Infinity 3, Lumenera).

The test system of another assay is HCT116 xenograft tumor. Briefly: HCT116 mouse xenograft model. Format: in vivo. The source says: FIG. 20. In vivo anticancer efficacy of BKAc-Puro. […] HCT116 cells were implanted subcutaneously into female nude mice. When the developed tumors reached 200 mm^3, animals were intraperitoneally injected by the indicated dose of the compound or vehicle control (DMSO). Tumor volume was estimated by the equation vol=(a×b^2)/2, where vol, a, and b represent volume, the length of the major axis, and the length of the minor axis, respectively. Arrows indicate the time points of treatment. (b) Body weight change during the treatment in a. Value is expressed in percent change compared to the day of the first treatment.
FIG. 21. HCT116 cells were implanted subcutaneously into female nude mice. When palpable tumors reached 50-150 mm^3, animals were randomized and treated by the indicated dose of the compound or vehicle control (DMSO) via intraperitoneal injection. Tumor incidence is presented as number of mice developed tumor (volume >300 mm^3) after 2 weeks of daily treatment/number of mice treated. Tumor volume was estimated by the equation vol=(a×b^2)/2, where vol, a, and b represent volume, the length of the major axis, and the length of the minor axis, respectively.
FIG. 29. In vivo anticancer efficacy of Boc-KAc-Puro. (a) Tumor growth in HCT116 xenograft model. Animals were treated with acidified saline control or Boc-KAc-Puro (50 or 150 mg/kg). Values are mean±s.d. (n=5 mice per group). *** P<0.001 compared to the control group. P=0.000716 (50 mg/kg), P=0.000349 (150 mg/kg) at 10 d. (b) Body weight change during the treatment in a and was monitored as a sign of general animal health. Values are mean±s.d. (c) Tumor growth in HT29 xenograft model. Animals were treated with acidified saline control or Boc-KAc-Puro (150 mg/kg). Values are mean±s.d. (n=5 mice per group). *** P<0.001 compared to the control group. P=0.000514 (150 mg/kg) at 10 d. (d) Body weight change during the treatment in c was monitored as a sign of general animal health. Values are mean±s.d. (e) Levels of Puro-incorporated proteins were monitored by immunoblotting. Animals bearing HT29 xenograft tumor were given daily intraperitoneal administration of the prodrug at 150 mg/kg/dose for 3 d, followed by preparation of tissue lysates. The lower panel (anti-α-Tubulin) served as a loading control.
To assess the in vivo efficacy of the compounds, mouse xenograft model using HCT116 colon cancer cells is used as an established evaluation method for the anticancer drugs against cancer (Cao, Z. A. et al. 2006). The growth inhibitory effects of the compounds on size-matched xenografts are examined by subcutaneous implantation of HCT116 cells into nude mice. HCT116 cells are injected subcutaneously and allowed to develop palpable tumors (50-150 mm^3) before initiation of drug administration. Mice (5-10 animals per group) are treated with the vehicle (DMSO or PBS) or the prodrugs by intraperitoneal administration. Dose ranges are determined by the dose escalation studies of the prodrugs. […] Relative tumor volume is calculated by dividing tumor volume by that on day 0 (the day of treatment initiation). […] Statistical significance of the data is evaluated by performing one-way ANOVA with post hoc Turkey's test to compare means (GraphPad Prism software). The efficacy of the compounds is further evaluated in a similar manner by using other cancer cell lines. […]

With `COc1ccc(CC(NC(=O)C(CCCCNC(C)=O)NC(=O)OC(C)(C)C)C(=O)NC2C(O)[C@H](n3cnc4c(N(C)C)ncnc43)O[C@@H]2CO)cc1` (stereo partly drawn) [BKAc-Puro, N-[3′-(α-Amino-p-methoxyhydrocinnamamido)-3′-deoxy-N,N-dimethyldenosinyl)-N-α-(t-butoxycarbonyl]-N-ε-acetyl-L-lysineamide], the “Effect on cell viability” value in assay [1] (54 μM, 5 d) is given as “also effective”. Besides, the Cell death result in assay [1] (dose-response) was “effectively caused cell death”. In addition, the “Cell proliferation (cell number)” value in assay [2] is “allowed them to proliferate to confluency”. Also, the “Tumors developed at 200 mg/kg” value with HCT116 xenograft tumor (200 mg/kg, intraperitoneal, 2 weeks daily) is on record as “no tumors greater than 300 mm^2 were observed”. The Tumor growth entry in the assay with HCT116 xenograft tumor (50 and 150 mg/kg/dose daily intraperitoneally for 10 d) is “dose-dependent inhibition of tumor growth”; in the assay with HCT116 xenograft tumor (intraperitoneal, treatment from tumors of 200 mm^3, DMSO vehicle control), “inhibition of tumor growth”. Moreover, in the assay with HCT116 xenograft tumor (50 and 150 mg/kg/dose, 10 d, P<0.001), the “Tumor mass in comparison to acidified saline control” value is listed as “significantly smaller tumor mass”. Moreover, the Tumor incidence result in the assay on HCT116 xenograft tumor (intraperitoneal, 2 weeks of daily treatment) was “inhibition of tumor incidence”.
